# Test results published in patent US20080027088A1, “Imidazole-Based Hmg-Coa Reductase Inhibitors” (Warner-Lambert Company, LLC, priority 2004, published 2008).
# What was measured:
# [1] = test system: ApoE KO mice fed a Western diet; assay: Lesion development in the cuffed femoral artery, 4 weeks; type: in vivo
# Protocol: Animal experiments—Male C57BI/6J and ApoE KO mice on C57BI/6J background were obtained from the Jackson Laboratory (Bar Harbor, Me.) or Taconic (Germantown, N.Y.) (Plaque formation in ApoE KO mice is lipid-driven (A. S. Plump et al., Cell. 1992;71 (2):343-53)). Myriocin was mixed with Western diet containing 0.21% cholesterol and 21% fat. 8-12-week-old mice received 0.3 mg myriocin/kg/day for 12 weeks (Table 1). 10-12 week-old ApoE KO mice (n=8) were pre-fed a western diet for 2 weeks and mice received various concentrations of myriocin for 4 weeks in diet admix. Control groups consisted of ApoE KO mice fed normal chow or Western diet without myriocin, and normal chow-fed C57BI/6J mice. Body weight and chow feeding was measured every week to examine the food consumption. For the femoral artery cuff model, 8-10 week-old male ApoE KO mice were anethetized and the right femoral artery was dissected from its surroundings. A nonconstrictive polyethylene cuff (Portex, 0.40-mm inner diameter, 0.80-mm outer diameter, and 1.5-mm length) was placed looselyaround the right femoral artery.
# For histological analysis, the mice were perfused and fixed in Zinc-Tris fixative. Paraffin embedded sections were stained with Masson's Trichrome. Intimal macrophages were immunohistochemically stained using MAC-2 antibody (clone M3/38 from Cedarlane Laboratories Limited) counterstained with Verhoeff elastic stain. T-lymphocytes were immunohistochemically stained with rat CD3 antibody (clone CD3-12, Serotec). Lesion thickness and area occupied by macrophages were determined using Image Pro Plus software.
# FIG. 5. Lesion Development in the Cuffed Femoral Artery of ApoE KO mice Fed a Western Diet. Mice were anesthetized and the right femoral artery was dissected from its surroundings. […] Atherosclerotic lesion (black bar) and macrophage size (gray bar) in the femoral artery were quantified by using Image Pro Plus software (FIG. 5A). Plasma serum amyloid A levels were determined by colormetric ELISA (FIG. 5B). […]
# [2] = test system: ApoE KO mice fed a Western diet; assay: Sphinganine in liver and aorta by LC/MS, 12 weeks; type: in vivo; conditions: 0.3 mg/kg/day
# From the text: Analysis of Sphingolipids and Phospholipids by LC/MS and HPLC-Total lipids were extracted by the modified method of Bligh-Dyer extraction (E. G. Bligh and W. J. Dyer, Can. J. Med. Sci. 1959;37:911-917; and D. K. Perry, A. Bielawska and Y. A. Hannun, Methods Enzymol. 2000;312:22-31). A Micromass (Waters Corp., Milford, Mass.) Quattro Ultima tandem quadrupole mass spectrometer with a standard Z-sprayTM ion source, set to electrospray positive ionization mode, with MassLynxTM version 3.5 operating software, was used for all quantitative determinations. Source conditions were typically as follows: capillary 3.5 kV, source temperature 110 degrees C., and desolvation temperature 325 degrees C. Multipliers were set to 650 V, and the dwell time for each analyte was 100 milliseconds. […] The following ion transitions were used for quantification: sphingomyelin (704→184 m/z), sphinganine (302→284 m/z), ceramide (566→264 m/z) and psychosine (462→282 m/z) as an internal standard. […] For the quantitative method, the analytical column was a Phenomenex (Torrance, Calif.) Polar-RP (2.0×150 mm, 4 μm) with a […] […] Lipid extracts were analyzed by HPLC and evaporative light scattering detector to determine plasma sphingomyelin and phosphatidylcholine (PC) levels (R. Homan and M.K. Anderson, J. Chromatogr. B. Biomed. Sci. Appl. 1998;708:21-6). […] Sphinganine levels in liver (A) and aorta (B) were determined by LC/MS. […]
compound,measurement,setting,value
CCCCCCC(=O)CCCCCC/C=C/C[C@@H](O)[C@H](O)[C@@](N)(CO)C(=O)O [myriocin],"reduction of development of atherosclerotic lesions, cuffed femoral artery",[1]; 0.1 mg/kg/day,43%
same,"reduction of macrophage accumulation, cuffed femoral artery",[1]; 0.1 mg/kg/day,47%
same,"lesion area reduced, cuffed femoral artery","[1]; 0.3 mg/kg/day, vs no-myriocin control",more than 98%
same,sphinganine levels in the liver lowered,[2]; vs Western diet-fed ApoE KO mice,42%
same,sphinganine levels in aorta lower,[2]; vs Western diet-fed group,45%
